Series [1] can be described thus: in vivo. The settings on record: aspen tree. How it is done:
The tree had not previously been treated with any pesticide. About 4 to 5 ml of a formulation containing 5% imidacloprid and 95% tetrahydrofurfuryl alcohol (THFA) was poured onto the soil around the base and then watered in.
(§1) Leaves obtained from the treated and untreated trees 100 days after treatment were analyzed for imidacloprid by enzyme-linked immunosorbent assay (ELISA). Briefly, leaves were dried completely and leaf blade material was separated from stems and petioles. The leaf blade material was ground to a fine powder, and about 5 grams of the material placed in a vial. A measured amount of methanol was added so that the leaf material was covered and 1 to 2 ml of methanol was beyond the leaf material, for a total of 10 to 20 ml of methanol. The vials were mixed well at least twice a day for at least 48 hours. After at least 48 hours, 10 microliters of the liquid was transferred to a smaller vial, and 1.5 ml distilled water added, and the vials were mixed well. ELISA was performed using the Envirologix™ QuantiPlate Kit for Imidacloprid (EP 006).

The nature of series [2]: in vivo. Conditions: phylodendrons. How it is done:
as §1
Five ml of a formulation of 5% imidacloprid and 95% THFA was applied to the soil of each of two 4-inch diameter pots of phylodendrons. An equal number of control plants received no insecticide treatment. All of the plants were watered and kept in the same area. On the tenth day after treatment, leaves from treated and control plants were collected and tested for imidacloprid by ELISA as described in Example 1.

For `O=[N+]([O-])NC1=NCCN1Cc1ccc(Cl)nc1` [imidacloprid], the concentration at 100 days in the series “in vivo [1]” amounted to 17000 ng/g. In addition, in “in vivo [2]”, the “Time for absorption by the roots and translocation to the leaves” value was no more than 10 days; the concentration at 10 days was 72000 ng/g.

For the origin of these results see patent US8664162B2, “Method for application of pesticides and plant growth regulators and nutrients to plants” (ArborSystems, priority 2009, dated 2014).
